{"source": "patent US11733232B2", "about": "“Method for producing disease modeling non-human animal, disease modeling non-human animal, and method for screening drug and method for determining risk of disease using the same” (National University Corporation Hokkaido University, priority 2017, dated 2023)", "assay_type_in_all_cases": "in vivo, C57BL/6 mice", "key": {"[1]": {"tested_on": "dopamine/noradrenergic neurons", "assay": "Immunostaining of third ventricular regions of chemically sympathectomized mice (tyrosine hydroxylase, phosphorylated CREB)", "details": "0.2 μL of 2 mg/ml microinjected at the specific blood vessels 4 days before T cell transfer, 10 days after transfer, FIG. 21", "procedure": "0.2 μL each of 6-hydroxydopamine (6-OHDA) hydrochloride (2 mg/ml), which is a neurotoxin denaturalizing dopamine/noradrenergic neurons, or a vehicle 0.02% ascorbic acid was microinjected at the specific blood vessels of C57BL/6 mice 4 days before transferring EAE-pathogenic CD4 positive T cells (2 days before stress load), in the same way as in the Example 3 (2). Subsequently, induction of sleep disorder and transfer of EAE-pathogenic CD4 positive T cells were performed in the same way as in the Example 1 (1).\nPhotographs of the immunostained third ventricular regions of chemically sympathectomized mice 10 days after transferring EAE-pathogenic CD4 positive T cells are shown in FIG. 21. The immunostaining was performed with an anti-tyrosine hydroxylase antibody or anti-phosphorylated CREB antibody. 6-OHDA reduced tyrosine hydroxylase-positive sympathetic neurons, and suppressed phosphorylation of CREB induced by noradrenergic receptor-mediated signal transduction."}, "[2]": {"tested_on": "specific blood vessels in the boundary area of the third ventricle, thalamus, and dentate gyrus", "assay": "Cell accumulation at the specific blood vessels of disease modeling mice (immunohistochemistry, flow cytometry)", "details": "0.2 μL of 2 mg/ml microinjected at the specific blood vessels 4 days before T cell transfer; FIG. 22", "description": "Accumulation of MHC class II positive cells and CD4 positive T cells in the mice prepared in Example 1 (1) was investigated. The fifth lumbar vertebra and the brain were removed from the mice 10 days after transferring EAE-pathogenic CD4 positive T cells, embedded in SCEM (SECTION-LAB Co., Ltd.), and sliced to sections with a thickness of 10 μm using a microtome device, CM3050 (Leica Microsystems GmbH). Sections were collected using Cryofilm type IIIC (16UF) (SECTION-LAB Co., Ltd.), subjected to hematoxylin eosin staining, or to immunohistochemical staining with an anti-MHC class II antibody or anti-CD4 antibody, and analyzed by BZ-9000 microscope (KEYENCE Corporation) using HS ALL software in BZ-II analyzer (KEYENCE Corporation).\nFurthermore, brains were removed from the mice 9 days after transferring EAE-pathogenic CD4 positive T cells, dissected into each parts of the cerebellum and brain stem, cortex, and hippocampus and interbrain, and enzymatically digested with Neural Tissue Dissection kit (Miltenyi Biotec Company) to prepare single cell suspension. […] Then, the cells were analyzed using CyAn flow cytometer (Beckman Coulter Corporation), and the obtained data were analyzed using Summit software (Beckman Coulter Corporation) or FlowJo software (Tree Star, Inc.). […]"}, "[3]": {"tested_on": "mice in which sleep disorder was induced followed by transfer of EAE-pathogenic CD4 positive T cells", "assay": "Pathological conditions (EAE clinical score, mortality, fecal occult blood) of disease modeling mice", "procedure": "Loading PAWW stress and induction of sleep disorder thereby were performed as described previously (Miyazaki, K. et al., PloS one, 2013, 8, e55452). 6-8 weeks old C57BL/6 mice were individually maintained in plastic cages with running wheels for habituation. Then, through loading PAWW stress by replacing wood beddings in the cages with water having depth of 1.5 cm to make the mice exercise continuously on the wheel for 2 days, sleep disorder was induced in the mice.\nPreparation and transfer of EAE-pathogenic CD4 positive T cells were performed as described previously (Arima, Y. et al., Cell., 2012, 148, 447-457; Arima, Y. et al., eLife, 2015, 4, e08733; Ogura, H. et al., Immunity, 2008, 29, 628-636). Briefly, C57BL/6 mice were injected subcutaneously with a MOG (35-55) peptide (Sigma-Aldrich Co. LLC.) together with complete Freund's adjuvant (Sigma-Aldrich Co. LLC.) at the base of the tail, then 0, 2, and 7 days after MOG peptide injection, the mice were further injected intravenously with pertussis toxin (Sigma-Aldrich Co. LLC.). 9 days after MOG peptide injection, lymphocytes were collected from the spleens of the mice, sorted with anti-CD4 microbeads (Miltenyi Biotec, Inc.) to obtain a cell population rich in CD4 positive T cells. The resulting cell population (4×10^6 cells) was co-cultured with MOG peptide-pulsed irradiated spleen cells (1×10^7 cells) for 2 days in the presence of rIL-23 (10 ng/mL; R & D Systems, Inc.). Cells were collected from the culture medium, enriched with the anti-CD4 microbeads, and EAE-pathogenic CD4 positive T cells were prepared.\n2 days after starting stress load described in (i) above, the EAE-pathogenic CD4 positive T cells (1.5×10^7 cells) prepared in (ii) above were transferred to the mice by intravenous injection to produce disease modeling mice. Also, mice into which EAE-pathogenic CD4 positive T cells were transferred without stress load, mice into which EAE-pathogenic CD4 positive T cells were not transferred after stress load, mice without stress load and without EAE-pathogenic CD4 positive T cells transfer, were prepared.\nPathological conditions of EAE in the mice prepared in Example 1 were evaluated with clinical score. Clinical score was determined as described previously (Arima, Y. et al., Cell, 2012, 148, 447-457; Arima, Y. et al., eLife, 2015, 4, e08733; Ogura, H. et al., Immunity, 2008, 29, 628-636). Clinical scores represent the severity of encephalomyelitis symptoms, and the scores increase with increasing the severity. A score of 0 is equivalent to normal state without abnormal findings, and a score of 5 is equivalent to death.\n(§1) Pathological conditions of gastroenteritis in the mice prepared in Example 1 (1) were evaluated on 10 days after the transfer of EAE-pathogenic CD4 positive T cells. Stools collected from each mouse were suspended in saline (20 mL/g stool), the supernatants obtained by centrifugation (8000 rpm, 5 minutes) were diluted to 10 times with saline, and fecal occult blood test was performed with Hemastix (Registered) (Siemens Healthcare Pty, Ltd.). Bloody stool scores were calculated according to the scoring method described on the package of Hemastix."}, "[4]": {"tested_on": "C57BL/6 mouse with induction of sleep disorder", "assay": "Microinjection at the specific blood vessels of mice with induced sleep disorder: mortality and bloody stool scores", "details": "1 μg microinjected together with IL-6 and IL-17A at the specific blood vessels, 2 days after", "procedure": "as §1\nThen, whether local inflammation in the brain causes a disease was investigated by directly injecting an inflammatory cytokine at the specific blood vessels. The head of a C57BL/6 mouse with induction of sleep disorder or a control mouse was fixed to a stereotactic device under anesthesia, fur above the skull was shaved, and the skin was cleaned with 70% ethanol. […]\n(§2) Furthermore, at the specific blood vessels of mice in which sleep disorder was induced, IL-6 and IL-17A, with or without a selective antagonist for P2X receptor which is an ATP receptor, A438079 (1 μg), were microinjected, in the same way as in the Example 3 (2). Phosphorylated cfos in the third ventricular region, bloody stool scores, and mortality were evaluated 2 days after the microinjection, and the results are shown in FIG. 34 and FIG. 35. […]"}, "PVN and DMH neurons": {"tested_on": "PVN and DMH neurons", "assay": "Anti-phosphorylated cfos immunostaining of the hypothalamus (PVN and DMH) after microinjection at the specific blood vessels", "details": "2 days after", "description": "Then, whether local inflammation in the brain causes a disease was investigated by directly injecting an inflammatory cytokine at the specific blood vessels. The head of a C57BL/6 mouse with induction of sleep disorder or a control mouse was fixed to a stereotactic device under anesthesia, fur above the skull was shaved, and the skin was cleaned with 70% ethanol. A 30-gauge needle was lowered toward the specific blood vessels (coordinates: AP −1.06 mm; ML 1 mm; DV 2.25 mm), and EAE-pathogenic CD4 positive T cells (1×10^6 cells)+bone marrow derived dendritic cells pulsed with MOG (5×10^5 cells), IFN-γ (50 ng; PeproTech, Inc.)+IL-17A (50 ng; R&D Systems, Inc.), or IL-6 (50 ng; Toray Industries, Inc.)+IL-17A (50 ng) in 0.2 μL each were microinjected over 90 seconds as described previously (Kim et al. (2011), Mol. Brain, 19, 4-6). […]\nas §2"}}}
{"smiles": "Cl.NCCc1cc(O)c(O)cc1O", "note": "[6-OHDA, 6-hydroxydopamine hydrochloride]", "values": [{"measurement": "phosphorylation of CREB", "setting": "[1]", "result": "suppressed"}, {"measurement": "tyrosine hydroxylase-positive sympathetic neurons", "setting": "[1]; vehicle 0.02% ascorbic acid", "result": "reduced"}, {"measurement": "accumulation of CD4 positive T cells at the specific blood vessels", "setting": "[2]", "result": "suppressed"}, {"measurement": "accumulation of CD11b positive MHC class II-highly expressing cells at the specific blood vessels", "setting": "[2]", "result": "suppressed"}, {"measurement": "mortality", "setting": "[3]; 0.2 μL of 2 mg/ml microinjected at the specific blood vessels 4 days before T cell transfer, 10 days after transfer, FIG. 23B", "result": "improved"}, {"measurement": "clinical scores", "setting": "[3]; 0.2 μL of 2 mg/ml microinjected at the specific blood vessels 4 days before T cell transfer, FIG. 23A", "result": "improved"}]}
{"smiles": "Clc1cccc(-c2nnnn2Cc2cccnc2)c1Cl", "note": "[A438079]", "values": [{"measurement": "mortality", "setting": "[4]; FIG. 35A", "result": "improved"}, {"measurement": "gastroenteritis (bloody stool scores)", "setting": "[4]; FIG. 35B", "result": "improved"}, {"measurement": "neural activation in the PVN and DMH (phosphorylated cfos)", "setting": "PVN and DMH neurons; 1 μg microinjected together with IL-6 and IL-17A at the specific blood vessels of mice with sleep disorder, FIG. 34", "result": "suppressed"}]}
{"smiles": "Cc1c(OCC(F)(F)F)ccnc1C[S+]([O-])c1nc2ccccc2[nH]1", "note": "(stereo not shown) [lansoprazole]", "values": [{"measurement": "mortality 10 days after the transfer", "setting": "[3]; 30 mg/kg body weight orally daily after transfer, control CMC, FIG. 6B", "result": "remarkably reduced"}, {"measurement": "bloody stool scores", "setting": "[3]; 30 mg/kg body weight orally daily after transfer, control CMC, FIG. 6C", "result": "remarkably reduced"}, {"measurement": "clinical scores", "setting": "[3]; 30 mg/kg body weight orally daily after transferring EAE-pathogenic CD4 positive T cells, control carboxymethyl cellulose, FIG. 6A", "result": "remarkably reduced"}]}
{"smiles": "NCc1cc(=O)[nH]o1", "note": "[Muscimol, muscimol]", "values": [{"measurement": "mortality", "setting": "[3]; 0.25 mg/mL microinjected into the DMH 5 days after T cell transfer, 10 days after transfer, FIG. 29B", "result": "remarkably improved"}, {"measurement": "bloody stool scores", "setting": "[3]; 0.25 mg/mL microinjected into the DMH 5 days after T cell transfer, 10 days after transfer, FIG. 29C", "result": "remarkably improved"}, {"measurement": "clinical scores", "setting": "[3]; 0.25 mg/mL microinjected into the DMH 5 days after T cell transfer, vehicle saline, FIG. 29A", "result": "remarkably improved"}]}
{"smiles": "Nc1ncnc2c1ncn2[C@@H]1O[C@H](COP(=O)(O)OP(=O)(O)OP(=O)(O)O)[C@@H](O)[C@H]1O", "note": "[ATP]", "values": [{"measurement": "phosphorylated cfos, that is, neural activation, in the PVN and DMH", "setting": "PVN and DMH neurons; microinjected at the specific blood vessels of mice with sleep disorder (IFN-γ+IL-17A 50 ng each; ATP 2 μg), FIG. 30", "result": "activated"}]}
